Measurements as given in patent publication US6964959B2, “Use of a methylol-containing compound to treat tumors” (Carter Wallace, Inc., priority 1999, dated 2005).

Key:
PA-1 = assay: Cell growth inhibition, PA-1 ovarian tumor cells; type: cell-based; conditions: Homo sapiens, PA-1, 72 h, PA-1 (ovary); 3 d exposure; cell number
Experimental: One ml of this cell suspension was added to each well of a 12 well cell culture plate that contained 3 ml of appropriate media plus serum. […] Control wells received 40 μl of 5% Kollidon 17PF alone. Seventy-two hours later, all cells were harvested by trypsinization and cell number determined electronically using a Coulter Model Z1 particle counter (Coulter Corp., Miami, Fla.) to assess cell growth inhibition. Each experiment was performed in duplicate and repeated a minimum of three times.
Cells were seeded at a density of 1-5×10^4 cells in each well of a 6 well tissue culture flask. […] After three days, cells were harvested by trypsinization and cell number determined electronically. Cell growth inhibition was determined by comparison to non-Taurolidine exposed control cultures. The IC50 was calculated as the concentration required to inhibit cell number by 50%.

[1] = Taurolidine-induced toxicity in athymic (nude) female mice; type: in vivo; conditions: for mortality (%): i.p., three consecutive days, nude female mice
Experimental: Control animals received 1 ml injections of 5% Kollidon 17PF alone. Animals were examined daily and body weight recorded twice weekly. A reduction in body weight of greater than 10% was considered significant. The maximally tolerated dose (MTD) was considered to be the dose which produced ˜10% mortality.
During the injection regimen, and daily thereafter for 30 d, mice were weighed and examined. Experiments were repeated a minimum of three times and mortality and weight loss data pooled.

[2] = system: activated human T-cell cultures; assay: Cytotoxic and apoptotic activity in activated human T-cell cultures; type: cell-based
Excerpt: This observation was confirmed using normal (non-tumor) primary cells derived from animals, which are known to be free of tumors.

[3] = system: TNF; interleukins 1, 6, and 10; VEGF; TGF; assay: Angiogenesis factors in patients with metastatic colon cancer; type: in vivo, human; conditions: treated subjects compared to subjects receiving placebo
Experimental: Patients with metastatic colon cancer were treated with taurolidine and several factors controlling angiogenesis were measured.

human tumor cell lines = assay: Tumor cell killing and apoptosis in culture; type: cell-based

O=S1(=O)CCN(CN2CCS(=O)(=O)NC2)CN1 [Taurolidine, Bis-(1,1-dioxoperhydro-1,2,4-thiadiazinyl-4)methane]
IC50 (PA-1): ~10 µM
mortality (%) ([1]; 10 mg/mouse/inj): 6%
mortality (%) ([1]; 20 mg/mouse/inj): 13%
mortality (%) ([1]; 25 mg/mouse/inj): 47%
mortality (%) ([1]; 30 mg/mouse/inj): 100%
tolerability ([1]; daily doses below 15 mg/mouse (˜650 mg/kg), 3 d i.p. bolus regimen): well-tolerated
induction of apoptosis [2]: did not produce cellular changes consistent with the induction of apoptosis
factors controlling the growth of blood vessels (TNF; interleukins 1, 6, and 10; VEGF; TGF) [3]: found to be decreased
incubation time after which apoptosis of tumor cells is induced (human tumor cell lines; in culture): as little as one hour
number of different human tumor cell lines killed (human tumor cell lines; ovarian, breast, brain, colon, prostate, urinary bladder, lung, melanomas, mesotheliomas, laryngeal carcinomas, leukemias, lymphomas): at least 28
